{"source": "PubChem BioAssay AID1963838", "about": "(Molecular Pharmacology Branch, DTP, NCI, 2024);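 also: spheroids exposed to compounds for seven days before readout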", "system": "855422-203-R-J1-PDC complex spheroid viability", "experiment": "Anticancer human tumor 855422-203-R-J1-PDC patient-derived bladder carcinoma cell line growth inhibition [POLQ]", "conditions": "for IC50: curve of first compound; for viability, T/C: stronger effect = lower value", "procedure": "Multicellular complex tumor spheroid response to Polymerase (POL) inhibitors (novobiocin, ART-558, RP6685) in combination with a variety of drugs and investigational agents in selected tumor cell lines\nThe POL inhibitors (novobiocin, ART-558, and RP6685) were evaluated both individually and in combination with standard of care and investigational anticancer small molecules within a complex spheroid model of solid tumors. . Complex spheroids include a stromal component modeled by human endothelial cells (HUVEC) and fibroblasts modeled by human mesenchymal stem cells (MSCs). The concentration ranges selected for each drug and investigational agent were based upon clinically achievable concentrations if the clinical Cmax of the agent was known.\nCompounds. The drugs and investigational agents: novobiocin (NSC847541), ART-558 (NSC835418), RP-6685 (NSC848927), peposertib (NSC802822), ceralasertib (NSC780249), elimusertib (NSC800525), camonsertib (NSC841442), AZD-1390 (NSC803789), olaparib (NSC753686), talazoparib (NSC767125), rucaparib (NSC756644), sotorasib (NSC818433), MRTX-1133 (NSC836407), SN-38 (NSC673596), topotecan (NSC609699), epotoside (NSC141540), doxorubicin (NSC123127), gemcitabine (NSC613327), 5-fluorouracil (NSC19893), paclitaxel (NSC125973), vemurafenib (NSC761431), MSA-2 (NSC828583), SN-011 (NSC837082), adavosertib (NSC754352), prexasertib (NSC758257), carboplatin (NSC241240) and oxaliplatin (NSC266046), were obtained from the National Cancer Institute (NCI) Developmental Therapeutics Program Chemical Repository (21). The FDA-approved anticancer drug set is available from the Developmental Therapeutics Program at https://dtp.cancer.gov/organization/dscb/obtaining/. […] The stock solutions were prepared in dimethyl sulfoxide (DMSO, Sigma-Aldrich, St. Louis, MO, cat. D2650), except for the platinum compounds which were prepared in saline (Quality Biological, Gaithersburg, MD, cat. 114-055-101), at 800-fold the tested concentration and stored at -70 degrees C prior to their use. All drugs and investigational agents were tested over a range starting from a high concentration at or near the clinical Cmax and decreasing in half-log increments. If the clinical Cmax for an agent had not been determined, the highest concentration tested was 10 microM, except for SN-38, which was tested at a high concentration of 1 microM.\nCell Culture. All cells were maintained in an incubator at 37 degrees C and 5% CO2 with 95% humidity. The PDC lines were cultured according to standard operating procedures established by the NCI PDMR (https://pdmr.cancer.gov). Table 3 of the manuscript, lists the cell lines along with the number of the three cell types plated to form the mct-spheroids and media for tumor cell growth. After thawing, all PDC lines, except 997537-175-T-J1-PDC and 415267-285-R-J2-PDC, were cultured in Matrigel-coated flasks prepared with a working solution of 1X Ham's F-12 nutrient mix, without supplementation (Thermo Fisher Scientific, cat. 11765054), 100 U/mL penicillin-streptomycin (Thermo Fisher Scientific, cat. 15140122), and 2.5% Matrigel (Corning Inc., Corning, NY, cat. 354248) for the first three passages. The two PDC lines 997537-175-T-J1-PDC and 415267-285-R-J2-PDC were cultured on uncoated flasks. The 857933-349-R-J2-PDC line was cultured in 6C/Colon 1B media containing advanced DMEM/F-12 (Thermo Fisher Scientific, cat. 12634028), 10 mM HEPES (Thermo Fisher Scientific, cat. 15630080), 1X GlutaMAX supplement (Thermo Fisher Scientific, cat. 35050061), 0.1 mg/mL primocin (InvivoGen, San Diego, CA, cat. ant-pm-2), 10% defined fetal bovine serum, heat inactivated (HyClone Laboratories Inc., Logan, UT, cat. SH30070.03HI), 50% L-WRN conditioned media (ATCC, cat. CRL-3276), 1.25 mM N-Acetyl-L-cysteine (Sigma-Aldrich, cat. A9165), 10 mM nicotinamide (Sigma-Aldrich, cat. N0636), 1X B-27 supplement (Thermo Fisher Scientific, cat. 17504044), 1X N-2 supplement (Thermo Fisher Scientific, cat. […]", "data": [{"smiles": "COc1cccc2c1C(=O)c1c(O)c3c(c(O)c1C2=O)CC(O)(C(=O)CO)CC3OC1CC(N)C(O)C(C)O1", "note": "(configuration not stated) + Cc1cccc(N(C)C(=O)C2C(O)CCN2c2nc(C)cc(C(F)(F)F)c2C#N)c1", "values": [{"measurement": "IC50", "setting": "second compound 0.0316 µM", "value": "< 31.6", "unit": "nM"}, {"measurement": "IC50", "setting": "second compound 0.1 µM", "value": "< 31.6", "unit": "nM"}, {"measurement": "IC50", "setting": "second compound 0.316 µM", "value": "< 31.6", "unit": "nM"}, {"measurement": "IC50", "setting": "second compound 1 µM", "value": "< 31.6", "unit": "nM"}, {"measurement": "IC50", "setting": "second compound 3.16 µM", "value": "< 31.6", "unit": "nM"}, {"measurement": "IC50", "setting": "second compound 10 µM", "value": "< 31.6", "unit": "nM"}, {"measurement": "viability, T/C", "setting": "second compound 0.0316 µM, first compound 0.0316 µM", "value": 16.1, "unit": "%"}, {"measurement": "viability, T/C", "setting": "second compound 0.0316 µM, first compound 0.1 µM", "value": 10.2, "unit": "%"}, {"measurement": "viability, T/C", "setting": "second compound 0.0316 µM, first compound 0.316 µM", "value": 2.55, "unit": "%"}, {"measurement": "viability, T/C", "setting": "second compound 0.0316 µM, first compound 1 µM", "value": 0.3, "unit": "%"}, {"measurement": "viability, T/C", "setting": "second compound 0.0316 µM, first compound 3.16 µM", "value": 0.66, "unit": "%"}, {"measurement": "viability, T/C", "setting": "second compound 0.0316 µM, first compound 10 µM", "value": 2.13, "unit": "%"}, {"measurement": "viability, T/C", "setting": "second compound 0.1 µM, first compound 0.0316 µM", "value": 15.8, "unit": "%"}, {"measurement": "viability, T/C", "setting": "second compound 0.1 µM, first compound 0.1 µM", "value": 10.1, "unit": "%"}, {"measurement": "viability, T/C", "setting": "second compound 0.1 µM, first compound 0.316 µM", "value": 2.47, "unit": "%"}, {"measurement": "viability, T/C", "setting": "second compound 0.1 µM, first compound 1 µM", "value": 0.26, "unit": "%"}, {"measurement": "viability, T/C", "setting": "second compound 0.1 µM, first compound 3.16 µM", "value": 0.48, "unit": "%"}, {"measurement": "viability, T/C", "setting": "second compound 0.1 µM, first compound 10 µM", "value": 2.11, "unit": "%"}, {"measurement": "viability, T/C", "setting": "second compound 0.316 µM, first compound 0.0316 µM", "value": 16.4, "unit": "%"}, {"measurement": "viability, T/C", "setting": "second compound 0.316 µM, first compound 0.1 µM", "value": 9.49, "unit": "%"}, {"measurement": "viability, T/C", "setting": "second compound 0.316 µM, first compound 0.316 µM", "value": 3.59, "unit": "%"}, {"measurement": "viability, T/C", "setting": "second compound 0.316 µM, first compound 1 µM", "value": 0.33, "unit": "%"}, {"measurement": "viability, T/C", "setting": "second compound 0.316 µM, first compound 3.16 µM", "value": 0.43, "unit": "%"}, {"measurement": "viability, T/C", "setting": "second compound 0.316 µM, first compound 10 µM", "value": 1.8, "unit": "%"}, {"measurement": "viability, T/C", "setting": "second compound 1 µM, first compound 0.0316 µM", "value": 14.4, "unit": "%"}, {"measurement": "viability, T/C", "setting": "second compound 1 µM, first compound 0.1 µM", "value": 9.02, "unit": "%"}, {"measurement": "viability, T/C", "setting": "second compound 1 µM, first compound 0.316 µM", "value": 2.18, "unit": "%"}, {"measurement": "viability, T/C", "setting": "second compound 1 µM, first compound 1 µM", "value": 0.24, "unit": "%"}, {"measurement": "viability, T/C", "setting": "second compound 1 µM, first compound 3.16 µM", "value": 0.8, "unit": "%"}, {"measurement": "viability, T/C", "setting": "second compound 1 µM, first compound 10 µM", "value": 1.14, "unit": "%"}, {"measurement": "viability, T/C", "setting": "second compound 3.16 µM, first compound 0.0316 µM", "value": 14.1, "unit": "%"}, {"measurement": "viability, T/C", "setting": "second compound 3.16 µM, first compound 0.1 µM", "value": 8.42, "unit": "%"}, {"measurement": "viability, T/C", "setting": "second compound 3.16 µM, first compound 0.316 µM", "value": 2.03, "unit": "%"}, {"measurement": "viability, T/C", "setting": "second compound 3.16 µM, first compound 1 µM", "value": 0.25, "unit": "%"}, {"measurement": "viability, T/C", "setting": "second compound 3.16 µM, first compound 3.16 µM", "value": 0.6, "unit": "%"}, {"measurement": "viability, T/C", "setting": "second compound 3.16 µM, first compound 10 µM", "value": 2.24, "unit": "%"}, {"measurement": "viability, T/C", "setting": "second compound 10 µM, first compound 0.0316 µM", "value": 13.5, "unit": "%"}, {"measurement": "viability, T/C", "setting": "second compound 10 µM, first compound 0.1 µM", "value": 9.55, "unit": "%"}, {"measurement": "viability, T/C", "setting": "second compound 10 µM, first compound 0.316 µM", "value": 1.76, "unit": "%"}, {"measurement": "viability, T/C", "setting": "second compound 10 µM, first compound 1 µM", "value": 0.25, "unit": "%"}, {"measurement": "viability, T/C", "setting": "second compound 10 µM, first compound 3.16 µM", "value": 0.59, "unit": "%"}, {"measurement": "viability, T/C", "setting": "second compound 10 µM, first compound 10 µM", "value": 1.9, "unit": "%"}]}]}
